Measurements as given in US20140031278A1, “Novel Glucagon Analogues” (NOVO NORDISK A/S, priority 2011, published 2014).
*1 amine or outer side, *2 acyl side, *3 side chain or, on linkers, in order; H or OH if unused. Where a SMILES comes first, the peptide text is derived from it. Side-chain parts run from the residue outwards. γGlu = O=C(O)[C@H](CCC(=O)[*:2])N[*:1]

Target: T1, glucagon receptor (Homo sapiens, UniProt P47871)
T1 construct: expressed in transfected cells
Assay: Assay (I) Glucagon activity (cAMP biosensor, FLIPR)
Assay type: cell-based
Conditions: HEK-293 cells with cloned glucagon receptor and cAMP biosensor; end point after 6 minutes
Outline: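 HEK-293 cells expressing glucagon receptor with membrane cAMP biosensor (ACTOne), calcium-dye loaded with probenecid and a PDE inhibitor.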

T1 sequence (P47871 26-477): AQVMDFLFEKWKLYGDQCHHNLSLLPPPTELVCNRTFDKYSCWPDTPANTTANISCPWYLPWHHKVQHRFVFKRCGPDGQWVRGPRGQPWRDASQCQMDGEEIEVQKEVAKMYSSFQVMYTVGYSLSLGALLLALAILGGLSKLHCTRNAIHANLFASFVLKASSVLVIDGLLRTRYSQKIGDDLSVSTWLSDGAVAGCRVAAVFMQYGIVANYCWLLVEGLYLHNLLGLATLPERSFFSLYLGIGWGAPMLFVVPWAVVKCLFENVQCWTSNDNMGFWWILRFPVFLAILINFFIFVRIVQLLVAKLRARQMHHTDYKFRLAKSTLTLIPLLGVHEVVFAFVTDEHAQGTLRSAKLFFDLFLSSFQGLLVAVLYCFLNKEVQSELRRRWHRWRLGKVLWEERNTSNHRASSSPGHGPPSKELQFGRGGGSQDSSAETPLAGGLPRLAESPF

EC50 [pM]	SMILES
7	CC(=O)N[C@@H](CCC(=O)N[C@@H](CCC(=O)N[C@@H](CCC(=O)N[C@@H](CCC(=O)NCCCC[C@H](NC(=O)[C@H](CC(C)C)NC(=O)[C@H](CC(C)C)NC(=O)[C@H](Cc1c[nH]c2ccccc12)NC(=O)[C@H](CCC(N)=O)NC(=O)[C@@H](NC(=O)[C@H](Cc1ccccc1)NC(=O)[C@H](CC(=O)O)NC(=O)[C@H](CCC(N)=O)NC(=O)[C@H](C)NC(=O)[C@H](CCCNC(=N)N)NC(=O)[C@H](CCCNC(=N)N)NC(=O)[C@H](CO)NC(=O)[C@H](CC(=O)O)NC(=O)[C@H](CC(C)C)NC(=O)[C@H](Cc1ccc(O)cc1)NC(=O)[C@H](CCCCN)NC(=O)[C@H](CO)NC(=O)[C@H](Cc1ccc(O)cc1)NC(=O)[C@H](CC(=O)O)NC(=O)[C@H](CO)NC(=O)[C@@H](NC(=O)[C@H](Cc1ccccc1)NC(=O)[C@@H](NC(=O)CNC(=O)[C@H](CCC(N)=O)NC(=O)[C@H](CO)NC(=O)[C@@H](N)Cc1c[nH]cn1)[C@@H](C)O)[C@@H](C)O)C(C)C)C(=O)N[C@H](C(=O)O)[C@@H](C)O)C(=O)O)C(=O)O)C(=O)O)C(=O)O [Example 53, N^ε28-[(4S)-4-[[(4S)-4-[[(4S)-4-[[(4S)-4-acetamido-4-carboxybutanoyl]amino]-4-carboxybutanoyl]amino]-4-carboxybutanoyl]amino]-4-carboxybutanoyl]-[Leu^27,Lys^28]-Glucagon]
18	CC(=O)N[C@@H](CCC(=O)N[C@@H](CCC(=O)N[C@@H](CCC(=O)N[C@@H](CCC(=O)NCCCC[C@H](NC(=O)[C@H](C)NC(=O)[C@H](CCCNC(=N)N)NC(=O)[C@H](CCCNC(=N)N)NC(=O)[C@H](CO)NC(=O)[C@H](CC(=O)O)NC(=O)[C@H](CC(C)C)NC(=O)[C@H](Cc1ccc(O)cc1)NC(=O)[C@H](CCCCN)NC(=O)[C@H](CO)NC(=O)[C@H](Cc1ccc(O)cc1)NC(=O)[C@H](CC(=O)O)NC(=O)[C@H](CO)NC(=O)[C@@H](NC(=O)[C@H](Cc1ccccc1)NC(=O)[C@@H](NC(=O)CNC(=O)[C@H](CCC(N)=O)NC(=O)[C@H](CO)NC(=O)[C@@H](N)Cc1c[nH]cn1)[C@@H](C)O)[C@@H](C)O)C(=O)N[C@@H](CC(=O)O)C(=O)N[C@@H](Cc1ccccc1)C(=O)N[C@H](C(=O)N[C@@H](CCC(N)=O)C(=O)N[C@@H](Cc1c[nH]c2ccccc12)C(=O)N[C@@H](CC(C)C)C(=O)N[C@@H](CC(C)C)C(=O)N[C@@H](CO)C(=O)N[C@H](C(=O)O)[C@@H](C)O)C(C)C)C(=O)O)C(=O)O)C(=O)O)C(=O)O [Example 54, N^ε20-[(4S)-4-[[(4S)-4-[[(4S)-4-[[(4S)-4-acetamido-4-carboxybutanoyl]amino]-4-carboxybutanoyl]amino]-4-carboxybutanoyl]amino]-4-carboxybutanoyl]-[Lys^20,Leu^27,Ser^28]-Glucagon]
51	CC(=O)N[C@@H](CCC(=O)N[C@@H](CCC(=O)N[C@@H](CCC(=O)N[C@@H](CCC(=O)NCCCC[C@H](NC(=O)[C@@H](NC(=O)[C@H](Cc1ccccc1)NC(=O)[C@H](CC(=O)O)NC(=O)[C@H](CCC(N)=O)NC(=O)[C@H](C)NC(=O)[C@H](CCCNC(=N)N)NC(=O)[C@H](CCCNC(=N)N)NC(=O)[C@H](CC(C)C)NC(=O)[C@H](CC(=O)O)NC(=O)[C@H](CC(C)C)NC(=O)[C@H](Cc1ccc(O)cc1)NC(=O)[C@H](CCCCN)NC(=O)[C@H](CO)NC(=O)[C@H](Cc1ccc(O)cc1)NC(=O)[C@H](CC(=O)O)NC(=O)[C@H](CO)NC(=O)[C@@H](NC(=O)[C@H](Cc1ccccc1)NC(=O)[C@@H](NC(=O)CNC(=O)[C@H](CCC(N)=O)NC(=O)CNC(=O)[C@@H](N)Cc1c[nH]cn1)[C@@H](C)O)[C@@H](C)O)C(C)C)C(=O)N[C@@H](Cc1c[nH]c2ccccc12)C(=O)N[C@@H](CC(C)C)C(=O)N[C@@H](CC(C)C)C(=O)N[C@@H](CO)C(=O)N[C@H](C(=O)O)[C@@H](C)O)C(=O)O)C(=O)O)C(=O)O)C(=O)O [Example 55, N^ε24-[(4S)-4-[[(4S)-4-[[(4S)-4-[[(4S)-4-acetamido-4-carboxybutanoyl]amino]-4-carboxybutanoyl]amino]-4-carboxybutanoyl]amino]-4-carboxybutanoyl]-[Gly^2,Leu^16,Lys^24,Leu^27,Ser^28]-Glucagon] (H-HGQGTFTSDYSKYLDLRRAQDFVK([γGlu-γGlu-γGlu-γGlu-Ac])WLLST-OH)
